Measured values reported in paper PMC11062922 (Nature Chemical Biology, 2023).

Experiments:
ACOX3 = assay: Kinobeads competition binding: ACOX3; parameters: species or system human; conditions: target ACOX3;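 note: share of all-target engagement taken by this protein at its own Kdapp concentration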
ACVR1B = target: T1, ACVR1B (Homo sapiens, UniProt P36896); assay: Kinobeads competition binding: ACVR1B; conditions: target ACVR1B
T1 construct: endogenous in cells
T1 sequence (P36896 24-505): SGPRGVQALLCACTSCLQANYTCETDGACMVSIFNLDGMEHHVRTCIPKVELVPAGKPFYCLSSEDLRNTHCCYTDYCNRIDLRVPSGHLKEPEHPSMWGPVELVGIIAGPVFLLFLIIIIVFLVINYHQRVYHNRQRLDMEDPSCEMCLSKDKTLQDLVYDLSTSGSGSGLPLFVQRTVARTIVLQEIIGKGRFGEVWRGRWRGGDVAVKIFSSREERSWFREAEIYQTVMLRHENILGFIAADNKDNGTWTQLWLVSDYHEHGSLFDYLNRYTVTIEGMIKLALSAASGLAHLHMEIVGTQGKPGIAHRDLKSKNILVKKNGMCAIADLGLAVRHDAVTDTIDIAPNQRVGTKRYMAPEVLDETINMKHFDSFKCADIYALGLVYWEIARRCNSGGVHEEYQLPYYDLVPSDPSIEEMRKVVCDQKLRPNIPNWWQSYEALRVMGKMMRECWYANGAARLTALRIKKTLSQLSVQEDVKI

BTK = target: T2, BTK (Homo sapiens, UniProt Q06187); assay: Kinobeads competition binding: BTK; conditions: target BTK
T2 construct: endogenous in cells
T2 sequence (Q06187 whole entry): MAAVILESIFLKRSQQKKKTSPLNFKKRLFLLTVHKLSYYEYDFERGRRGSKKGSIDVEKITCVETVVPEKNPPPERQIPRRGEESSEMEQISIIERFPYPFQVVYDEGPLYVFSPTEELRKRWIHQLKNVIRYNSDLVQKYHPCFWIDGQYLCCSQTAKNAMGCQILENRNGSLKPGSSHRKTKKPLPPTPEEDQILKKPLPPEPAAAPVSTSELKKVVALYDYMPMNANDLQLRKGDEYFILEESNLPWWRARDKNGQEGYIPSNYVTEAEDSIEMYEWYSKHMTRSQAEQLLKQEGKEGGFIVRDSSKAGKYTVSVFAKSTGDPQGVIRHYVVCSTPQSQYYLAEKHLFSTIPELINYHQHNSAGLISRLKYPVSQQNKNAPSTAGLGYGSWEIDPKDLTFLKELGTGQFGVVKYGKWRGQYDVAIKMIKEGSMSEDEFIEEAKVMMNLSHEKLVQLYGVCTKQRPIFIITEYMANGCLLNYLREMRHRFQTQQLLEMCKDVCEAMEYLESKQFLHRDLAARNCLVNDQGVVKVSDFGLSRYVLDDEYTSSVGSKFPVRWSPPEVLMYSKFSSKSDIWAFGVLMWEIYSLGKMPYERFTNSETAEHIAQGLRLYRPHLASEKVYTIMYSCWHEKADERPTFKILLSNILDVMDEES
Description: Supplement 41589_2023_1459_MOESM4_ESM.xlsx, sheet "CATDS matrix" | column: BTK

CLK3 = assay: Kinobeads competition binding: CLK3; parameters: species or system human; conditions: target CLK3
CSK = target: T3, CSK (Homo sapiens, UniProt P41240); assay: Kinobeads competition binding: CSK; conditions: target CSK
T3 construct: endogenous in cells
T3 sequence (P41240 whole entry): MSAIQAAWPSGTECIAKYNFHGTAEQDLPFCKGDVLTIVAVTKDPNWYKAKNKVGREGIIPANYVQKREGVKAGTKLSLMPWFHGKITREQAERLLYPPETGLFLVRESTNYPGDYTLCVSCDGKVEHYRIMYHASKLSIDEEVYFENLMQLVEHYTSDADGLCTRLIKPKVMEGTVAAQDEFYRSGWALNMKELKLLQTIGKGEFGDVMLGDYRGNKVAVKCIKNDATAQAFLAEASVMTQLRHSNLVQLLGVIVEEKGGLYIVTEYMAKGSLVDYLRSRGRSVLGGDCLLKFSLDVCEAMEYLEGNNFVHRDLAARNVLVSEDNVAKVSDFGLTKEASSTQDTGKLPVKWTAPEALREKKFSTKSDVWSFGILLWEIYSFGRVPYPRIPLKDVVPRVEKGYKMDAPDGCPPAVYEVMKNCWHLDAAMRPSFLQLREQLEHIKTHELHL

DDR2 = assay: Kinobeads competition binding: DDR2; parameters: species or system human; conditions: target DDR2;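 note: target engagement share of this target among all targets at its Kdapp concentration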
EPHB3 = target: T4, EPHB3 (Homo sapiens, UniProt P54753); assay: Kinobeads competition binding: EPHB3; conditions: target EPHB3
T4 construct: endogenous in cells
T4 sequence (P54753 34-998): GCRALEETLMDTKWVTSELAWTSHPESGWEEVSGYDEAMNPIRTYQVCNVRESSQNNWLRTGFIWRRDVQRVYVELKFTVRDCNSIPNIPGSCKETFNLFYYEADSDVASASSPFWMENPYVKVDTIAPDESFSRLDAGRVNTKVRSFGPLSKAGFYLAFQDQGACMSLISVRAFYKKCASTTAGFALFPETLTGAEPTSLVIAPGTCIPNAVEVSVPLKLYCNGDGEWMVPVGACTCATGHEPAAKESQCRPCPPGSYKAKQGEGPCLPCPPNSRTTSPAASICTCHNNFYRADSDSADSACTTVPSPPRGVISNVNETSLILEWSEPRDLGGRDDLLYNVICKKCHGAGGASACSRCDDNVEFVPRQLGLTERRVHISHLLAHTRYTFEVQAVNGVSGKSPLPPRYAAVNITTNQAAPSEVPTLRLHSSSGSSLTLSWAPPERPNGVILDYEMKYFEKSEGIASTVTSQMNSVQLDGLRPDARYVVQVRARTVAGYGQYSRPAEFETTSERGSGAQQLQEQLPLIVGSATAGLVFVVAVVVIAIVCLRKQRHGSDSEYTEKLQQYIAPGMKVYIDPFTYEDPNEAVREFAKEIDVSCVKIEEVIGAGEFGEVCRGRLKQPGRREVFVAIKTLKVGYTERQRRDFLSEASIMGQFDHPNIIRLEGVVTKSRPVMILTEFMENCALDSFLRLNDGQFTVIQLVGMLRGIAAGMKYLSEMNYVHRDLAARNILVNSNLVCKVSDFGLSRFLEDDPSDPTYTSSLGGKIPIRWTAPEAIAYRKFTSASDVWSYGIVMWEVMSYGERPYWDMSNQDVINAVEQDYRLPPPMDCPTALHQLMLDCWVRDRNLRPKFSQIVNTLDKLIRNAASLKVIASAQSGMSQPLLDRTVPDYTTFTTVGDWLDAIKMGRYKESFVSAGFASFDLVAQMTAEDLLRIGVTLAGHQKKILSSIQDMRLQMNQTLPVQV
Description: Supplement 41589_2023_1459_MOESM4_ESM.xlsx, sheet "CATDS matrix" | column: EPHB3

FER = target: T5, FER (Homo sapiens, UniProt P16591); assay: Kinobeads competition binding: FER; conditions: target FER
T5 construct: endogenous in cells
T5 sequence (P16591 whole entry): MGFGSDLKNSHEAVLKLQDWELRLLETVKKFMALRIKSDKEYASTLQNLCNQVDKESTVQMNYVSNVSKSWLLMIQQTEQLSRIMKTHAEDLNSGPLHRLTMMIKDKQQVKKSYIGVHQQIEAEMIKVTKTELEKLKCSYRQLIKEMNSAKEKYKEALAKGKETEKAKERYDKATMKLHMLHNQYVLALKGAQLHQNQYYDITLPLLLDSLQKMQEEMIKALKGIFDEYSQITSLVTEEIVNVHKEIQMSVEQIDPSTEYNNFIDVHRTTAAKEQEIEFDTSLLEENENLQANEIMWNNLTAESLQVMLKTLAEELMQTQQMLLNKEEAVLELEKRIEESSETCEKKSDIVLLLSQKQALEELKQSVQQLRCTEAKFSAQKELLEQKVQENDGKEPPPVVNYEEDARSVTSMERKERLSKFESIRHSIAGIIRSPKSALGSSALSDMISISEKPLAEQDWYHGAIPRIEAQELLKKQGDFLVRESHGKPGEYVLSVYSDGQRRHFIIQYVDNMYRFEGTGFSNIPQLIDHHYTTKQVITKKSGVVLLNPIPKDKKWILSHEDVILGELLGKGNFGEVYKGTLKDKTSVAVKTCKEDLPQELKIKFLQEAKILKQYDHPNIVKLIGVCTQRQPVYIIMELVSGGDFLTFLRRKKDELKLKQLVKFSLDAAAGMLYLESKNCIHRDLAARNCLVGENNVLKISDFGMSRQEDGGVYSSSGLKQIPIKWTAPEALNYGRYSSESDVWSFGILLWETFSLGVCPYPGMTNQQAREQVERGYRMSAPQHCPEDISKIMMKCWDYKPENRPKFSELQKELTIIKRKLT
Description: Supplement 41589_2023_1459_MOESM4_ESM.xlsx, sheet "CATDS matrix" | column: FER

HSPE1 = assay: Kinobeads competition binding: HSPE1; parameters: species or system human; conditions: target HSPE1
INSR = assay: Kinobeads competition binding: INSR; parameters: species or system human; conditions: target INSR;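 note: share of total target engagement due to this protein at one drug concentration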
JAK1 = assay: Kinobeads competition binding: JAK1; parameters: species or system human; conditions: target JAK1;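 note: target engagement share of this target among all targets at its Kdapp concentration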
LIMK2 = assay: Kinobeads competition binding: LIMK2; parameters: species or system human; conditions: target LIMK2
LYN = assay: Kinobeads competition binding: LYN; parameters: species or system human; conditions: target LYN
MAP3K2 = assay: Kinobeads competition binding: MAP3K2; parameters: species or system human; conditions: target MAP3K2
MARK4 = assay: Kinobeads competition binding: MARK4; parameters: species or system human; conditions: target MARK4
PIK3C2B = assay: Kinobeads competition binding: PIK3C2B; parameters: species or system human; conditions: target PIK3C2B
CDK1 = assay: Kinobeads competition binding: CDK1; parameters: species or system human; conditions: target CDK1
DYRK1A = target: T6, DYRK1A (Homo sapiens, UniProt Q13627); assay: Kinobeads competition binding: DYRK1A; conditions: target DYRK1A
T6 construct: endogenous in cells

Row | Structure (SMILES) | CATDS (ACOX3) | CATDS (ACVR1B) | CATDS (BTK) | CATDS (CLK3) | CATDS (CSK) | CATDS (DDR2) | CATDS (EPHB3) | CATDS (FER) | CATDS (HSPE1) | CATDS (INSR) | CATDS (JAK1) | CATDS (LIMK2) | CATDS (LYN) | CATDS (MAP3K2) | CATDS (MARK4) | CATDS (PIK3C2B) | CATDS (CDK1) | CATDS (DYRK1A)
1 | CCN1CCN(Cc2ccc(Nc3ncc(F)c(-c4cc(F)c5nc(C)n(C(C)C)c5c4)n3)nc2)CC1 [Abemaciclib] | 0 | 0 | 0 | 0 | 0 | 0 | 0 | 0 | 0 | 0 | 0 | 0 | 0 | 0 | 0 | 0 |  | 
2 | CN(C)C/C=C/C(=O)Nc1cc2c(Nc3ccc(F)c(Cl)c3)ncnc2cc1O[C@H]1CCOC1 [Afatinib] | 0 |  | 0 |  |  |  | 0 | 0 | 0 |  |  |  |  |  |  |  |  | 
3 | CCc1cc2c(cc1N1CCC(N3CCOCC3)CC1)C(C)(C)c1[nH]c3cc(C#N)ccc3c1C2=O [Alectinib] | 0 | 0 | 0 | 0 | 0 | 0 | 0 | 0 | 0 | 0 | 0 | 0 | 0 | 0 | 0 | 0 | 0 | 0
4 | Nc1ncnc2[nH]c(-c3ccccc3)nc12 [AH5015_KCGS] | 0 | 0 | 0 | 0 | 0 | 0 | 0 | 0.03222 | 0 | 0 | 0 | 0 | 0 | 0 | 0 | 0 | 0 | 0
5 | N#CC1(c2ccc(NC(=O)c3cccnc3NCc3ccncc3)cc2)CCCC1 [Apatinib] | 0 | 0 | 0 | 0 | 0 | 0 | 0 | 0 | 0 | 0 | 0 | 0 | 0 | 0 | 0 | 0 | 0 | 0
